According to patent US9834558B2, “Substituted bridged urea analogs as sirtuin modulators” (GLAXOSMITHKLINE LLC, priority 2013, dated 2017):

Target: T1, SIRT1 (Homo sapiens, UniProt Q96EB6)
T1 sequence (Q96EB6 1-747): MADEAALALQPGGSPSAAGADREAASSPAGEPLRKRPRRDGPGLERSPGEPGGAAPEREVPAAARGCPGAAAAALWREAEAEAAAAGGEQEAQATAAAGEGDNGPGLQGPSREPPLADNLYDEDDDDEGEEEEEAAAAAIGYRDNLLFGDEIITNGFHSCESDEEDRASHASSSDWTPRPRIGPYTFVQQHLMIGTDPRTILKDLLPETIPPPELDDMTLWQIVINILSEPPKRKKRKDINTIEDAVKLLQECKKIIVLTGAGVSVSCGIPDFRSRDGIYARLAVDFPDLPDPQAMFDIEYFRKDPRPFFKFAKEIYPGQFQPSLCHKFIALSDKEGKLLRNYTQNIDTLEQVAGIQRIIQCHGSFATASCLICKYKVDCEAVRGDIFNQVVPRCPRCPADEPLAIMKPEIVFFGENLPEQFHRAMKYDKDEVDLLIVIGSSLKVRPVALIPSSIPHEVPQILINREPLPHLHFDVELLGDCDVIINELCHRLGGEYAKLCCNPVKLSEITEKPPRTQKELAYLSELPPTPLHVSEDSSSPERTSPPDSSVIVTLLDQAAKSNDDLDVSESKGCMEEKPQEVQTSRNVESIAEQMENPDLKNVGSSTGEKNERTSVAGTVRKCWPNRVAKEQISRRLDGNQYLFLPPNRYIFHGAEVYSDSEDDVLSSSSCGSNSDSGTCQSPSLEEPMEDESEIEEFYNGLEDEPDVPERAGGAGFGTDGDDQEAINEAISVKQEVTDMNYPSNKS
Test: Trp mass spectrometry assay of SIRT1 activation
Assay type: biochemical
Conditions: for TRP Activity (EC1.5) / Emax: Trp peptide assay; for TRP Activity (EC1.5): EC1.5 = concentration that results in 150% activation of SIRT1; for Emax: maximum activity relative to control (100%), read-out: TRP MAX RESP (percent maximum fold activation)
In short: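 Activation read-out: mass-spec measurement of O-acetyl-ADP-ribose or deacetylated Trp peptide versus compound-free controls, giving EC1.5 and Percent Maximum Activation. Reactions ran 25 min at 25 °C, pH 7.5, with 120 μM βNAD+, 0.5 μM acetylated p53-derived peptide and 10 nM His-tagged SIRT1.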

[1] = Trp mass spectrometry assay, EC1.5 = concentration of test compound that results in 150% activation of SIRT1
[2] = concentration giving 150% activation of SIRT1, Trp peptide substrate
[3] = Trp mass spectrometry assay, concentration of test compound giving 150% activation of SIRT1

## CS(=O)(=O)Nc1cccc(-c2ccc3c(n2)N(C(=O)Nc2cnccn2)[C@H]2CCN3C2)c1 [Example 418]
[1]
  Tryp AVG EC1.5 (μM): B (B (EC1.5 1-25 μM))

## O=C(Nc1cccnc1)N1c2nc(-c3cccnc3)ccc2N2CCC[C@H]1C2 [Example 455]
[1]
  Tryp AVG EC1.5 (μM): B (B (EC1.5 1-25 μM))

## Cc1cc(-c2ccc3c(n2)N(C(=O)Nc2cnccn2)[C@@H]2CCN3C2)ccn1 [(9R)-5-(2-methylpyridin-4-yl)-N-(pyrazin-2-yl)-1,6,8-triazatricyclo[7.2.1.0 {2,7}]dodeca-2(7),3,5-triene-8-carboxamide]
  TRP Activity (EC1.5): B (B (EC1.5 1-25 μM))
  Emax: > 150%

## O=C(Nc1cccc(-c2cnco2)c1)N1c2nc(-c3cncc(F)c3)ccc2N2CCC1CC2 [Example 574]
[1]
  Tryp AVG EC1.5 (μM): A (A (EC1.5<1 μM))

## O=C(Nc1ccncn1)N1c2nc(-c3cccc(N4CCOCC4)c3)ccc2N2CCC[C@H]1C2 [Example 529]
[1]
  Tryp AVG EC1.5 (μM): B (B (EC1.5 1-25 μM))

## COC(=O)c1cccc(NC(=O)N2c3nc(-c4cccc(C(F)(F)F)c4)ccc3N3CC[C@H]2C3)c1 [Example 626]
[2]
  Tryp AVG EC1.5 (μM): A (A (EC1.5<1 μM))

## CC(C)n1cc(-c2ccc3c(n2)N(C(=O)Nc2cccnc2)[C@H]2CCN3C2)cn1 [Example 494]
[1]
  Tryp AVG EC1.5 (μM): B (B (EC1.5 1-25 μM))

## O=C(Nc1ccccn1)N1c2nc(-c3cccc(Cl)c3)ccc2N2CCC1CC2 [Example 533]
[1]
  Tryp AVG EC1.5 (μM): B (B (EC1.5 1-25 μM))

## Cc1cc(-c2ccc3c(n2)N(C(=O)Nc2cccnn2)[C@H]2CCCN3C2)ccn1 [(9S)-5-(2-methylpyridin-4-yl)-N-(pyridazin-3-yl)-1,6,8-triazatricyclo[7.3.1.0 {2,7}]trideca-2(7),3,5-triene-8-carboxamide]
  TRP Activity (EC1.5): A (A (EC1.5<1 μM))
  Emax: > 150%

## O=C(Nc1cc(-c2cnco2)ccn1)N1c2nc(-c3cccc(C(F)(F)F)c3)ccc2N2CC[C@H]1C2 [Example 589]
[1]
  Tryp AVG EC1.5 (μM): A (A (EC1.5<1 μM))

## O=C(Nc1ccccn1)N1c2nc(N3CC[C@@H](C(F)(F)F)C3)ccc2N2CC[C@H]1C2 [(9S)-N-(pyridin-2-yl)-5-[(3R)-3-(trifluoromethyl)pyrrolidin-1-yl]-1,6,8-triazatricyclo[7.2.1.0^2,7]dodeca-2,4,6-triene-8-carboxamide]
  TRP Activity (EC1.5): A (A (EC1.5<1 μM))
  Emax: > 150%

## O=C(Nc1ccc(F)cn1)N1c2nc(-c3ccnc(N4CCC(F)(F)C4)c3)ccc2N2CC[C@H]1C2 [Example 425]
[1]
  Tryp AVG EC1.5 (μM): A (A (EC1.5<1 μM))

## O=C(Nc1cnccn1)N1c2nc(-c3ccnc(N4CCC(F)(F)C4)c3)ccc2N2CC[C@H]1C2 [Example 423]
[1]
  Tryp AVG EC1.5 (μM): A (A (EC1.5<1 μM))

## COc1cc(NC(=O)N2c3nc(-c4ccnc(N5CC[C@@H](F)C5)c4)ccc3N3CC[C@H]2C3)ncn1 [Example 424]
[1]
  Tryp AVG EC1.5 (μM): B (B (EC1.5 1-25 μM))

## O=C(Nc1ccccn1)N1c2cc(-c3cccc(C(F)(F)F)c3)ccc2N2CC[C@H]1C2 [Example 785]
[2]
  Tryp AVG EC1.5 (μM): C (C (EC1.5>25 μM))

## COc1cncc(NC(=O)N2c3nc(-c4ccnc(C)c4)ccc3N3CC[C@H]2C3)n1 [Example 499]
[1]
  Tryp AVG EC1.5 (μM): A (A (EC1.5<1 μM))

## COc1cc(NC(=O)N2c3nc(-c4cccc(Cl)c4)ccc3N3CCC[C@H]2C3)ncn1 [Example 408]
[3]
  Tryp AVG EC1.5 (μM): A (A (EC1.5<1 μM))

## CC(C)(C)OC(=O)NCc1cccc(-c2ccc3c(n2)N(C(=O)Nc2ccncc2)[C@H]2CCCN3C2)c1 [Example 795]
[2]
  Tryp AVG EC1.5 (μM): B (B (EC1.5 1-25 μM))

## O=C(Nc1cnccn1)N1c2nc(-c3cc(Cl)cc(Cl)c3)ccc2N2CC[C@H]1C2 [Example 364]
[3]
  Tryp AVG EC1.5 (μM): B (B (EC1.5 1-25 μM))

## CS(=O)(=O)N1CCCN(c2ccc3c(n2)N(C(=O)Nc2ccncn2)[C@H]2CCCN3C2)CC1 [Example 433]
[1]
  Tryp AVG EC1.5 (μM): B (B (EC1.5 1-25 μM))

## NCCCCCC(=O)NCc1cccc(NC(=O)N2c3nc(-c4cccc(C(F)(F)F)c4)ccc3N3CC[C@H]2C3)c1 [Example 758]
[2]
  Tryp AVG EC1.5 (μM): A (A (EC1.5<1 μM))

## CS(=O)(=O)c1cncc(-c2ccc3c(n2)N(C(=O)Nc2cnccn2)[C@H]2CCCN3C2)c1 [Example 378]
[3]
  Tryp AVG EC1.5 (μM): A (A (EC1.5<1 μM))

## O=C(Nc1cccc(-c2cnco2)c1)N1c2cc(-c3cccc(C(F)(F)F)c3)ccc2N2CC[C@H]1C2 [Example 786]
[2]
  Tryp AVG EC1.5 (μM): B (B (EC1.5 1-25 μM))

## Cc1cc(-c2ccc3c(n2)N(C(=O)Nc2cnccn2)[C@H]2CCN3C2)cc(C(F)(F)F)n1 [(9S)-5-[2-methyl-6-(trifluoromethyl)pyridin-4-yl]-N-(pyrazin-2-yl)-1,6,8-triazatricyclo[7.2.1.0 {2,7}]dodeca-2(7),3,5-triene-8-carboxamide]
  TRP Activity (EC1.5): A (A (EC1.5<1 μM))
  Emax: > 150%

## Cc1cc(-c2ccc3c(n2)N(C(=O)Nc2cncc(C(C)C)n2)[C@H]2CCN3C2)ccn1 [(9S)-5-(2-methylpyridin-4-yl)-N-[6-(propan-2-yl)pyrazin-2-yl]-1,6,8-triazatricyclo[7.2.1.0^2,7]dodeca-2(7),3,5-triene-8-carboxamide]
  TRP Activity (EC1.5): A (A (EC1.5<1 μM))
  Emax: > 150%

## N#Cc1cncc(-c2ccc3c(n2)N(C(=O)Nc2ccncn2)[C@H]2CCCN3C2)c1 [Example 558]
[1]
  Tryp AVG EC1.5 (μM): B (B (EC1.5 1-25 μM))

## C[C@H]1CN(c2ccc3c(n2)N(C(=O)Nc2cnccn2)[C@H]2CCN3C2)CCO1 [(9S)-5-[(2S)-2-methylmorpholin-4-yl]-N-(pyrazin-2-yl)-1,6,8-triazatricyclo[7.2.1.0 {2,7}]dodeca-2,4,6-triene-8-carboxamide]
  TRP Activity (EC1.5): B (B (EC1.5 1-25 μM))
  Emax: > 150%

## CC(C)(C)OC(=O)NCc1cnnn1-c1cccc(NC(=O)N2c3nc(-c4cccc(C(F)(F)F)c4)ccc3N3CC[C@H]2C3)c1 [Example 638]
[2]
  Tryp AVG EC1.5 (μM): A (A (EC1.5<1 μM))

## COc1cc(NC(=O)N2c3nc(-c4cncc(Cl)c4)ccc3N3CCC[C@H]2C3)ncn1 [Example 405]
[3]
  Tryp AVG EC1.5 (μM): A (A (EC1.5<1 μM))

## Cc1cc(-c2ccc3c(n2)N(C(=O)Nc2ccc4nn(C)cc4c2)[C@H]2CCCN3C2)ccn1 [(9S)-N-(2-methyl-2H-indazol-5-yl)-5-(2-methylpyridin-4-yl)-1,6,8-triazatricyclo[7.3.1.0 {2,7}]trideca-2,4,6-triene-8-carboxamide]
  TRP Activity (EC1.5): A (A (EC1.5<1 μM))
  Emax: > 150%

## NC(=O)c1cncc(-c2ccc3c(n2)N(C(=O)Nc2ccccn2)[C@H]2CCN3C2)c1 [Example 371]
[3]
  Tryp AVG EC1.5 (μM): B (B (EC1.5 1-25 μM))

## O=C(Nc1cncc(OC[C@@H](O)CO)n1)N1c2nc(-c3cccc(C(F)(F)F)c3)ccc2N2CC[C@H]1C2 [(9S)-N-{6-[(2S)-2,3-dihydroxypropoxy]pyrazin-2-yl}-5-[3-(trifluoromethyl)phenyl]-1,6,8-triazatricyclo[7.2.1.0 {2,7}]dodeca-2(7),3,5-triene-8-carboxamide]
  TRP Activity (EC1.5): A (A (EC1.5<1 μM))
  Emax: > 150%

## O=C(Nc1cnccn1)N1c2nc(-c3ccc(C(F)(F)F)nc3)ccc2N2CC[C@H]1C2 [(9S)-N-(pyrazin-2-yl)-5-[6-(trifluoromethyl)pyridin-3-yl]-1,6,8-triazatricyclo[7.2.1.0 {2,7}]dodeca-2(7),3,5-triene-8-carboxamide]
  TRP Activity (EC1.5): B (B (EC1.5 1-25 μM))
  Emax: > 150%

## Cc1cc(-c2ccc3c(n2)N(C(=O)Nc2cnn(C)c2)[C@H]2CCN3C2)ccn1 [Example 482]
[1]
  Tryp AVG EC1.5 (μM): B (B (EC1.5 1-25 μM))

## Cc1ncc(-c2ccc3c(n2)N(C(=O)Nc2cnccn2)[C@H]2CCN3C2)cc1F [(9S)-5-(5-fluoro-6-methylpyridin-3-yl)-N-(pyrazin-2-yl)-1,6,8-triazatricyclo[7.2.1.0 {2,7}]dodeca-2(7),3,5-triene-8-carboxamide]
  TRP Activity (EC1.5): B (B (EC1.5 1-25 μM))
  Emax: > 150%

## N#Cc1ccccc1-c1ccc2c(n1)N(C(=O)Nc1cnccn1)[C@H]1CCCN2C1 [Example 450]
[1]
  Tryp AVG EC1.5 (μM): B (B (EC1.5 1-25 μM))

## O=C(NC1CCOCC1)c1ccc2c(n1)N(C(=O)Nc1ccccn1)[C@H]1CCN2C1 [(9S)-5-N-(oxan-4-yl)-8-N-(pyridin-2-yl)-1,6,8-triazatricyclo[7.2.1.0 {2,7}]dodeca-2(7),3,5-triene-5,8-dicarboxamide]
  TRP Activity (EC1.5): B (B (EC1.5 1-25 μM))
  Emax: > 150%

## Cc1nc(-c2cccc(NC(=O)N3c4nc(-c5cccc(C(F)(F)F)c5)ccc4N4CC[C@H]3C4)c2)cs1 [Example 583]
[1]
  Tryp AVG EC1.5 (μM): A (A (EC1.5<1 μM))

## O=C(Nc1ccccn1)N1c2nc(-c3cncc(Cl)c3)ccc2N2CCC1CC2 [Example 551]
[1]
  Tryp AVG EC1.5 (μM): B (B (EC1.5 1-25 μM))
